Values of other authors in patent US4144131A, “Immobilization of enzymes on human tissue or erythrocytes” (Wisconsin Alumni Research Foundation, priority 1974, dated 1979).

System: soybean lipoxygenase
Conditions: read-out: Km for oxygen, compared with oxygen concentrations in tumor tissue

- Km: 30 µM
Structure (SMILES): O=O [oxygen]
